Measured values: ChEMBL document CHEMBL3885881, “DrugMatrix”

Organism: Rattus norvegicus
Assay: DrugMatrix - Regimen: Daily Repeat
Type: toxicity, organism-based, Sprague-Dawley
Parameters: regimen Daily Repeat, gender Male, age 6-8 weeks
Settings: in vivo, po, route oral GAVAGE, vehicle .5 % CMC; for ALBUMIN / ALKALINE PHOSPHATASE / ASPARTATE AMINOTRANSFERASE / BLOOD UREA NITROGEN / CARBON DIOXIDE / CHLORIDE / CHOLESTEROL / CREATINE PHOSPHOKINASE / CREATININE / GLUCOSE / LACTATE DEHYDROGENASE / PHOSPHORUS / POTASSIUM / SODIUM / TOTAL BILIRUBIN / TOTAL PROTEIN / URIC ACID / ALANINE AMINOTRANSFERASE: tissue Plasma; for ABSOLUTE BASOPHIL / ABSOLUTE EOSINOPHIL / ABSOLUTE LYMPHOCYTE / ABSOLUTE SEGMENTED NEUTROPHIL / BASOPHIL / EOSINOPHIL / ERYTHROCYTE COUNT / HEMATOCRIT / LEUKOCYTE COUNT / LYMPHOCYTE / MEAN CORPUSCULAR HEMOGLOBIN / MEAN CORPUSCULAR HEMOGLOBIN CONCENTRATION / MEAN CORPUSCULAR VOLUME / MONOCYTE / NEUTROPHIL / NUCLEATED RED BLOOD CELLS / PLATELET COUNT: tissue Blood
[1] = 3 mg/kg, 120 h, dose level Low, time 5 day
[2] = 250 mg/kg, 72 h, dose level M1, time 3 day
[3] = 250 mg/kg, 120 h, dose level M1, time 5 day
[4] = 500 mg/kg, 72 h, dose level High, time 3 day

CCN(CC)CCOc1ccc(/C(=C(/Cl)c2ccccc2)c2ccccc2)cc1 [ENCLOMIPHENE]
ALBUMIN [1]: 4.23 G/DL
ALKALINE PHOSPHATASE [1]: 396 u/L
ASPARTATE AMINOTRANSFERASE [1]: 74.33 u/L
BLOOD UREA NITROGEN [1]: 15 mg/dL
CARBON DIOXIDE [1]: 26 mmol/L
CHLORIDE [1]: 102.33 MEQ/L
CHOLESTEROL [1]: 19 mg/dL
CREATINE PHOSPHOKINASE [1]: 301 u/L
CREATININE [1]: 0.17 mg/dL
GLUCOSE [1]: 167.33 mg/dL
LACTATE DEHYDROGENASE [1]: 159.33 u/L
PHOSPHORUS [1]: 11.77 mg/dL
POTASSIUM [1]: 6.49 MEQ/L
SODIUM [1]: 144.63 MEQ/L
TOTAL BILIRUBIN [1]: 0.13 mg/dL
TOTAL PROTEIN [1]: 6.17 G/DL
URIC ACID [1]: 1.3 mg/dL
ABSOLUTE BASOPHIL [2]: 0 CELLS/uL
ABSOLUTE EOSINOPHIL [2]: 257 CELLS/uL
ABSOLUTE LYMPHOCYTE [2]: 8100 CELLS/uL
ABSOLUTE SEGMENTED NEUTROPHIL [2]: 6509.67 CELLS/uL
BASOPHIL [2]: 0%
EOSINOPHIL [2]: 1.67%
ERYTHROCYTE COUNT [2]: 6.81 x10E6/uL
HEMATOCRIT [2]: 42.67%
LEUKOCYTE COUNT [2]: 14.87 x10E3/uL
LYMPHOCYTE [2]: 63%
MEAN CORPUSCULAR HEMOGLOBIN [2]: 22.93 pg
MEAN CORPUSCULAR HEMOGLOBIN CONCENTRATION [2]: 36.33 G/DL
MEAN CORPUSCULAR VOLUME [2]: 63.07 fL
MONOCYTE [2]: 0%
NEUTROPHIL [2]: 35.33%
NUCLEATED RED BLOOD CELLS [2]: 0 /100WBC
PLATELET COUNT [2]: 1358.67 x10E3/uL
ALANINE AMINOTRANSFERASE [2]: 103.33 u/L
ALBUMIN [2]: 3.87 G/DL
ALKALINE PHOSPHATASE [2]: 393.33 u/L
ASPARTATE AMINOTRANSFERASE [2]: 112.33 u/L
BLOOD UREA NITROGEN [2]: 17 mg/dL
CARBON DIOXIDE [2]: 21.67 mmol/L
CHLORIDE [2]: 104.67 MEQ/L
CHOLESTEROL [2]: 20.67 mg/dL
CREATINE PHOSPHOKINASE [2]: 596.67 u/L
CREATININE [2]: 0.17 mg/dL
GLUCOSE [2]: 156.67 mg/dL
LACTATE DEHYDROGENASE [2]: 305 u/L
PHOSPHORUS [2]: 12.63 mg/dL
POTASSIUM [2]: 6.02 MEQ/L
SODIUM [2]: 145 MEQ/L
TOTAL BILIRUBIN [2]: 0.0667 mg/dL
TOTAL PROTEIN [2]: 5.43 G/DL
URIC ACID [2]: 2.13 mg/dL
ABSOLUTE BASOPHIL [3]: 0 CELLS/uL
ABSOLUTE EOSINOPHIL [3]: 97.33 CELLS/uL
ABSOLUTE LYMPHOCYTE [3]: 15789.33 CELLS/uL
ABSOLUTE SEGMENTED NEUTROPHIL [3]: 1980 CELLS/uL
BASOPHIL [3]: 0%
EOSINOPHIL [3]: 0.67%
ERYTHROCYTE COUNT [3]: 7.29 x10E6/uL
HEMATOCRIT [3]: 44.07%
LEUKOCYTE COUNT [3]: 17.87 x10E3/uL
LYMPHOCYTE [3]: 88.33%
MEAN CORPUSCULAR HEMOGLOBIN [3]: 22.33 pg
MEAN CORPUSCULAR HEMOGLOBIN CONCENTRATION [3]: 36.8 G/DL
MEAN CORPUSCULAR VOLUME [3]: 60.6 fL
MONOCYTE [3]: 0%
NEUTROPHIL [3]: 11%
NUCLEATED RED BLOOD CELLS [3]: 0 /100WBC
PLATELET COUNT [3]: 1119 x10E3/uL
ALANINE AMINOTRANSFERASE [3]: 135 u/L
ALBUMIN [3]: 3.8 G/DL
ALKALINE PHOSPHATASE [3]: 350 u/L
ASPARTATE AMINOTRANSFERASE [3]: 128 u/L
BLOOD UREA NITROGEN [3]: 17.67 mg/dL
CARBON DIOXIDE [3]: 25.33 mmol/L
CHLORIDE [3]: 104.33 MEQ/L
CHOLESTEROL [3]: 27.67 mg/dL
CREATINE PHOSPHOKINASE [3]: 820.67 u/L
CREATININE [3]: 0.15 mg/dL
GLUCOSE [3]: 142.67 mg/dL
LACTATE DEHYDROGENASE [3]: 135 u/L
PHOSPHORUS [3]: 11.73 mg/dL
POTASSIUM [3]: 6.75 MEQ/L
SODIUM [3]: 147.17 MEQ/L
TOTAL BILIRUBIN [3]: 0.1 mg/dL
TOTAL PROTEIN [3]: 5.37 G/DL
URIC ACID [3]: 1.8 mg/dL
ABSOLUTE BASOPHIL [4]: 0 CELLS/uL
ABSOLUTE EOSINOPHIL [4]: 68.67 CELLS/uL
ABSOLUTE LYMPHOCYTE [4]: 11139 CELLS/uL
ABSOLUTE SEGMENTED NEUTROPHIL [4]: 1343.67 CELLS/uL
BASOPHIL [4]: 0%
EOSINOPHIL [4]: 0.67%
ERYTHROCYTE COUNT [4]: 6.43 x10E6/uL
HEMATOCRIT [4]: 40.43%
LEUKOCYTE COUNT [4]: 12.83 x10E3/uL
LYMPHOCYTE [4]: 86.67%
MEAN CORPUSCULAR HEMOGLOBIN [4]: 24.7 pg
MEAN CORPUSCULAR HEMOGLOBIN CONCENTRATION [4]: 39.23 G/DL
MEAN CORPUSCULAR VOLUME [4]: 62.87 fL
MONOCYTE [4]: 2%
NEUTROPHIL [4]: 10.67%
NUCLEATED RED BLOOD CELLS [4]: 0 /100WBC
PLATELET COUNT [4]: 1271 x10E3/uL
ALANINE AMINOTRANSFERASE [4]: 113.33 u/L
ALBUMIN [4]: 3.63 G/DL
ALKALINE PHOSPHATASE [4]: 288.33 u/L
ASPARTATE AMINOTRANSFERASE [4]: 124 u/L
BLOOD UREA NITROGEN [4]: 11 mg/dL
CARBON DIOXIDE [4]: 32 mmol/L
CHLORIDE [4]: 105.33 MEQ/L
CHOLESTEROL [4]: 25.33 mg/dL
CREATINE PHOSPHOKINASE [4]: 861 u/L
CREATININE [4]: 0.1 mg/dL
GLUCOSE [4]: 141 mg/dL
LACTATE DEHYDROGENASE [4]: 193.67 u/L
PHOSPHORUS [4]: 12.93 mg/dL
POTASSIUM [4]: 5.84 MEQ/L
SODIUM [4]: 146.17 MEQ/L
TOTAL BILIRUBIN [4]: 0.1 mg/dL
TOTAL PROTEIN [4]: 5.03 G/DL
URIC ACID [4]: 1.43 mg/dL
